Measurements: patent publication US20250115597A1, “TYK2 INHIBITORS AND COMPOSITIONS AND METHODS THEREOF” (LYNK PHARMACEUTICALS CO. LTD., priority 2021, published 2025)
≈ marks a conversion by molar mass, not a printed value. Read-outs that look alike come from different tables or passages of the source.

How the values were obtained:
JAK1-JH2 domain = target: T1, JAK1-JH2 domain (Homo sapiens, UniProt P23458); experiment: Binding activity test for JH2 domain of JAK1 (Tb-antibody/tracer FRET)
T1 construct: IC50 on JH2 domain activity (nM)
Procedure, shortened: (§1)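 FRET read-out after 60 min at 25° C plus overnight at 4° C; tracer displacement detected via Tb-labelled antibody on the JH2 domain. Dose-response used 11 points at 3-fold dilution.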

[1] = Plasma protein binding by equilibrium dialysis; format: in vitro ADME; settings: human plasma, equilibrium dialysis 5 hours at 37° C.; read-out: % Bound (human) (converted)
Procedure: Plasma Protein Binding by Equilibrium Dialysis
Aliquots of test compound stock solution and warfarin stock solution were spiked into plasma to give the matrix solutions with theoretical concentrations of test compound at 0.2 and 2 μM or warfarin at 2 μM. Immediately transfer 50 μL of the spiked plasma solution suspension to a 96-well plate to act as T=0 control sample. Assemble the dialysis set up following the manufacturer's instructions. Load cells with 150 μL of plasma sample and dialyzed against equal volume of dialysis buffer (PBS). The assay is performed in duplicate. Cover the unit with gas permeable lid and incubate for 5 hours at 37° C. at 100 rpm in a constant temperature shaking box. At the end of incubation, remove lid and pipette 50 μL of post-dialysis samples from both buffer and plasma solution chambers into separated 96-well plate for analysis, respectively. Add 50 μL of plasma solution to the buffer samples, and an equal volume of PBS to the collected plasma solution samples. Shake the plate at 1000 rpm for 2 minutes and add 600 μL of 50% ACN/MeOH containing an appropriate internal standard (IS) to precipitate protein and release compound. Vortex at 1000 rpm for 10 minutes. Centrifuge for 10 minutes at 4000 rpm. Then transfer 75 μL of the supernatant to new 96-well plates for analysis. Add 150 μL of distilled water to each sample and mix for analysis by LC-MS/MS.
The free rate (% Unbound), binding rate (% Bound), and recovery rate (% Recovery) of the compound are calculated as follows: […]

[2] = Microsomal metabolic stability assay; format: in vitro ADME; settings: pH 7.4, 0.5 mg/mL protein, 1 μM compound
Procedure, shortened: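 Parent loss was tracked by LC/MS/MS at 0, 5, 15, 30 and 45 min, with half-life derived from the ln(% remaining)–time slope. Incubation at 37 °C, pH 7.4 phosphate/EDTA buffer: 0.5 mg/mL microsomes, 1 μM compound, NADPH-regenerated (2 mM).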

Kinetic solubility = format: physicochemical; settings: phosphate buffer, aqueous buffer, kinetic from dmso stock, PBS (pH 7.4), 1% DMSO, room temperature
Procedure: Aliquots of 8 μL of reference and test compound stock solutions (10 mM/5 mM) are added into 792 μL of 100 mM pH 7.4 phosphate buffer. The final DMSO concentration is 1%. Sample tubes are shaken for 2 hours at 1000 rpm at room temperature. Samples are centrifuged at 12000 rpm for 10 min to precipitate un-dissolved particles. And transfer the supernatants to a new tube or plate. Add 5 μL of samples (no diluted, 10 times diluted and 100 times diluted) and standard curve samples to 95 μL of ACN containing IS for LC-MS/MS analysis.

TYK2-JH2 domain = target: T2, TYK2-JH2 domain (Homo sapiens, UniProt P29597); experiment: Binding activity test for JH2 domain of TYK2 (Tb-antibody/tracer FRET); settings: for JAK1/TYK2 selectivity: ratio JAK1-JH2 IC50 / TYK2-JH2 IC50
T2 construct: IC50 on JH2 domain activity (nM)
Procedure, shortened: as §1

pSTAT1 = experiment: Phosphorylation inhibition of STAT in human whole blood, IFN-alpha stimulated (flow cytometry); format: cell-based; settings: 20 min; human whole blood, IFN-alpha 20 mins, CD3 cells; read-out: IC50 on pSTAT1 inhibition in h WB
Procedure, shortened: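 Readout is pSTAT1 (Y701) in CD3-stained cells by flow cytometry, with IC50 derived from a 4-parameter logistic equation. Fresh human PBMC or fresh whole blood received a 20-min Universal Type I IFN-alpha stimulation before fixation and cold permeabilization.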

[3] = target: T3, Ba/F3-FL-TYK2-P760L cells (Homo sapiens, UniProt P29597, P760L, cells depend on it); experiment: Anti-proliferative assay, Ba/F3-FL-TYK2-P760L cells (Cell-Titer Glo); format: cell-based; settings: 72 h, read-out: BaF3-FL-T2P760L IC50
T3 construct: BaF3-FL-T2P760L (nM)
Procedure, shortened: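 Compound exposure ran 72 h at 37 °C in 5% CO2 across nine 3-fold concentrations from a 20 μM top dose, added 24 h after seeding 2000 cells/well.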

JAK1 = target: T4, JAK1 (Homo sapiens, UniProt P23458); experiment: JAK1 kinase activity, microfluidic assay (Caliper EZ Reader II); format: biochemical; settings: JAK1 5 nM, 1 mM ATP
T4 construct: purchased Carna Biosciences
Procedure: (§2) Testing for JAK1, JAK2 and TYK2 Kinase Activities
(§3) JAK activity was determined in the reaction buffer 50 mM HEPES, 0.01% Brij35, 10 mM MgCl2, 2 mM DTT by a microfluidic assay. The phosphorylation of a FAM labeled peptide substrate was monitored in the Caliper EZ Reader II (Perkin Elmer). The assay condition for each batch of enzyme (Carna Biosciences) was optimized to obtain 10% conversion rate of peptide substrate.
(§4) The test compounds were dissolved in DMSO to a stock concentration of 10 mM. Three-fold serially diluted compounds with top concentration of 5 μM were pre-incubated with JAK1, JAK2 or TYK2 for 10 min at ambient temperature. The final DMSO concentration of assay mixture was 1%. […] The reaction was stopped by adding 50 mM EDTA.
(§5) The percent inhibition was calculated by the following formula:
(§6) [formula] • wherein • Conversion %_max=the conversion rate in the positive well without addition of compound • Conversion %_sample=the conversion rate of test compounds • Conversion %_min=the conversion rate in the well without addition of enzyme
(§7) The dose-response (percent inhibition) curve was plotted and IC50 values were determined by GraphPad software.

TYK2 = target: T5, TYK2 (Homo sapiens, UniProt P29597); experiment: TYK2 kinase activity, microfluidic assay (Caliper EZ Reader II); format: biochemical; settings: TYK2 1 nM, 1 mM ATP
T5 construct: purchased Carna Biosciences
Procedure: as §2, §3, §4, §5, §6, §7

JAK2 = target: T6, JAK2 (Homo sapiens, UniProt O60674); experiment: JAK2 kinase activity, microfluidic assay (Caliper EZ Reader II); format: biochemical; settings: JAK2 0.125 nM, 1 mM ATP
T6 construct: purchased Carna Biosciences
Procedure: as §2, §3, §4, §5, §6, §7

[4] = dog liver microsomes, read-out: Dog LM Clint
[5] = dog liver microsomes, read-out: Dog LM T½
[6] = human liver microsomes, read-out: Human LM Clint
[7] = human liver microsomes, read-out: Human LM T½
[8] = rat liver microsomes, read-out: Rat LM Clint
[9] = rat liver microsomes, read-out: Rat LM T½

T1 sequence (P23458 583-855 limits assumed): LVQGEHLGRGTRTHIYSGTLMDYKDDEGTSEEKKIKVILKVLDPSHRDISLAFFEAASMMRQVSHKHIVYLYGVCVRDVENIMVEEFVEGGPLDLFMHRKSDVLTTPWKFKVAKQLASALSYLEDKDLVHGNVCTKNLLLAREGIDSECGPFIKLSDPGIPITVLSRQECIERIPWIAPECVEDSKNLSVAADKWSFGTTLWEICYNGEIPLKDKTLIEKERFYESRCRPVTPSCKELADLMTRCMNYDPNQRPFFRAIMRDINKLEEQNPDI
T2 sequence (P29597 589-875 limits assumed): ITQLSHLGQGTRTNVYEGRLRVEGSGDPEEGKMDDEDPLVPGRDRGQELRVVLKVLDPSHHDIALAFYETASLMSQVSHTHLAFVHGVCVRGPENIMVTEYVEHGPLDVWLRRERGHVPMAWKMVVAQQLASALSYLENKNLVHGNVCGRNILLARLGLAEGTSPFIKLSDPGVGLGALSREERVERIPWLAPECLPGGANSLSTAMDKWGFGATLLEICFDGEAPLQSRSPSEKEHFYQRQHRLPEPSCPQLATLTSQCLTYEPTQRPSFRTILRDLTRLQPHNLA
T3 sequence (P29597 whole entry P760L): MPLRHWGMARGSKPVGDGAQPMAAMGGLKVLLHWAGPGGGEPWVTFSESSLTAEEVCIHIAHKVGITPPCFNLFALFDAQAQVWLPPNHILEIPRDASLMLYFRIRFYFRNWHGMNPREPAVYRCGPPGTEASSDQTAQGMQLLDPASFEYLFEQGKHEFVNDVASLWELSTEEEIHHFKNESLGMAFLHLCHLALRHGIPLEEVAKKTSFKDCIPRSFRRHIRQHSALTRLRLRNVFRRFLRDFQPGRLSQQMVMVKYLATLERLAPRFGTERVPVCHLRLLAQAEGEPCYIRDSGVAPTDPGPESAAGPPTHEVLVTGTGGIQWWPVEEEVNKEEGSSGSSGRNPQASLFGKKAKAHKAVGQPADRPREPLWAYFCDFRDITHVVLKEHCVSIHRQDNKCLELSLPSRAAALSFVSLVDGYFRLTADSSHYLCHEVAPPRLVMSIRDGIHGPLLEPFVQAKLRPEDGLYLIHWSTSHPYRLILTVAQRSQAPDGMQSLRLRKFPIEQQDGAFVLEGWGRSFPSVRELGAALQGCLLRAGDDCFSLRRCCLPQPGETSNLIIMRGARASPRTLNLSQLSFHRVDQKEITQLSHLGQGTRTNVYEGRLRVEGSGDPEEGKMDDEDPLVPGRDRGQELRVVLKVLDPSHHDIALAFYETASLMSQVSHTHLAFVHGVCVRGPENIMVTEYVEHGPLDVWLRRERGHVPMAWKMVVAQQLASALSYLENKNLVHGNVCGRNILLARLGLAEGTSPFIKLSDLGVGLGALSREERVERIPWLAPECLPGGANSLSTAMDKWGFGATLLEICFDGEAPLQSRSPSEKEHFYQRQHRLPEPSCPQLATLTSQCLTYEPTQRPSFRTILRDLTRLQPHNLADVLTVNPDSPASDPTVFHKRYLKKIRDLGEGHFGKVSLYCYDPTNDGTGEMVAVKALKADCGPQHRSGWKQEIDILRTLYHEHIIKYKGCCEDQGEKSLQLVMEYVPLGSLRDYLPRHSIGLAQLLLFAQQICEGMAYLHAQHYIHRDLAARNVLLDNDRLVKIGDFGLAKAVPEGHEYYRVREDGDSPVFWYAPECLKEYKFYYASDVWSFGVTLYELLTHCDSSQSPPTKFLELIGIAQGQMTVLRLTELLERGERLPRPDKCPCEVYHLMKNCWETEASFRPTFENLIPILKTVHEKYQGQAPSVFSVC
T5 sequence (P29597 whole entry): as the sequence (P29597 whole entry P760L) above, with L760P counted along it
T6 sequence (O60674 whole entry): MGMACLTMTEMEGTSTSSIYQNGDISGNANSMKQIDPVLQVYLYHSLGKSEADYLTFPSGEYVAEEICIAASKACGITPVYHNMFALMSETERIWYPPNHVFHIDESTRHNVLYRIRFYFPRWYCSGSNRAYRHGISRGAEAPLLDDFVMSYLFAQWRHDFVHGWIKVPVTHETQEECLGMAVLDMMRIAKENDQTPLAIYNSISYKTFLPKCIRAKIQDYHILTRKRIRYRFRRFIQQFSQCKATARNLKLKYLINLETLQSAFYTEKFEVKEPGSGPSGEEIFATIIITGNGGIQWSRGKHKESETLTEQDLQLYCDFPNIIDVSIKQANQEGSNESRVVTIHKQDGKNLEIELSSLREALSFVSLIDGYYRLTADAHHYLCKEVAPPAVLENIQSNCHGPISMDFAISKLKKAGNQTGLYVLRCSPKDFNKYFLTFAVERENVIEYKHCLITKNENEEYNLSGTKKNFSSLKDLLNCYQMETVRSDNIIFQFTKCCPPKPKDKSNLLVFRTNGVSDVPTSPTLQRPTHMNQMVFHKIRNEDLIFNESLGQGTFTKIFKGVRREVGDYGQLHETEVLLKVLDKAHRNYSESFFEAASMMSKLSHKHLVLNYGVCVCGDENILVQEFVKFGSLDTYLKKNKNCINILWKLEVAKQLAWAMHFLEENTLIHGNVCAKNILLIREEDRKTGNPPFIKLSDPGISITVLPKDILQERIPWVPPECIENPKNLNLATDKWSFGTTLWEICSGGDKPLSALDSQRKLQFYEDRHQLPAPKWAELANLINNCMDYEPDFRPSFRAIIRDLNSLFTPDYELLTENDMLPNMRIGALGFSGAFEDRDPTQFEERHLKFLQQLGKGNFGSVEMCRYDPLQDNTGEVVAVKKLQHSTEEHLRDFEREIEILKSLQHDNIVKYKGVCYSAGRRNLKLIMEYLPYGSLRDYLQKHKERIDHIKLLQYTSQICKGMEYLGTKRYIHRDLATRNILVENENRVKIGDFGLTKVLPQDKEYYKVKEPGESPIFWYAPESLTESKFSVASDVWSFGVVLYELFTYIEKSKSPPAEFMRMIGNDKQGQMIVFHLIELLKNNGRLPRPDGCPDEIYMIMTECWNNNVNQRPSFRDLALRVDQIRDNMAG
T4 sequence (P23458 whole entry): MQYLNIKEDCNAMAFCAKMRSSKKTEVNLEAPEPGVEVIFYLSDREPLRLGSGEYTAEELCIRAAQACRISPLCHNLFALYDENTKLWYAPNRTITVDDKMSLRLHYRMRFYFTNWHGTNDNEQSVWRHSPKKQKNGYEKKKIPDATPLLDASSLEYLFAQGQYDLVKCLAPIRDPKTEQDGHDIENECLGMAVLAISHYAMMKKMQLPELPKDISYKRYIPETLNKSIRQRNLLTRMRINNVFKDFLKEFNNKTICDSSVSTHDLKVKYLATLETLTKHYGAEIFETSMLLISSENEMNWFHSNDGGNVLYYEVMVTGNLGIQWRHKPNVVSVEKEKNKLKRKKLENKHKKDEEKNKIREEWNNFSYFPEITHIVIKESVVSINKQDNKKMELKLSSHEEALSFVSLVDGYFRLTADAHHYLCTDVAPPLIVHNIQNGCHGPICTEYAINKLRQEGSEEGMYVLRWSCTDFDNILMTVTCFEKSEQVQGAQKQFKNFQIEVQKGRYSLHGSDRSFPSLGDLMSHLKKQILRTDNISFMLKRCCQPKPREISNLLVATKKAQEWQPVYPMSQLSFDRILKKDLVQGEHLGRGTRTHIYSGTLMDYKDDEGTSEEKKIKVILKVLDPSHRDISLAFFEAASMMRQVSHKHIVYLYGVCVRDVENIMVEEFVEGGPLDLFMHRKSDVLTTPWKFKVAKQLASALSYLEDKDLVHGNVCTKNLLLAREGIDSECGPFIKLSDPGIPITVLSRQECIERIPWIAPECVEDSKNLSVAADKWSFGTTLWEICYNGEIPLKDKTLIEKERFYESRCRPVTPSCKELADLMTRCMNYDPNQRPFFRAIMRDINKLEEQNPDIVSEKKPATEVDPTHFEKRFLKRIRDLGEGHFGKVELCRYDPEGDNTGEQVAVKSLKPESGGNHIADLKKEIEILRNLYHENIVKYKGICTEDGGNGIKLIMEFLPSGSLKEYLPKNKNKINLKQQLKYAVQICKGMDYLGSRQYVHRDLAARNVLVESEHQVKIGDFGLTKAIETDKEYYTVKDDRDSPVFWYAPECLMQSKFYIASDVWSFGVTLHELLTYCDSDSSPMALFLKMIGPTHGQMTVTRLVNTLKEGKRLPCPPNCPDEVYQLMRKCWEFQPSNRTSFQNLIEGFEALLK

SMILES | IC50 (JAK1-JH2 domain) | fraction unbound at 5 h [1] | microsomal CLint at 1 μM [2, 4] | half-life at 1 μM [2, 5] | microsomal CLint at 1 μM [2, 6] | half-life at 1 μM [2, 7] | microsomal CLint at 1 μM [2, 8] | half-life at 1 μM [2, 9] | solubility at 2 h (Kinetic solubility) | IC50 (TYK2-JH2 domain) | JAK1/TYK2 selectivity (TYK2-JH2 domain) | IC50 (pSTAT1) | GI50 [3] | IC50 (JAK1) | IC50 (TYK2) | IC50 (JAK2)
[2H]C([2H])([2H])NC(=O)c1cnc(NC(=O)C2CC2)cc1Nc1cn(C)c2ncn([C@H](C)C(F)(F)F)c(=O)c12 (single isomer, unassigned) [Example 234A, (R*)-6-(cyclopropanecarboxamido)-N-(methyl-d3)-4-((7-methyl-4-oxo-3-(1,1,1-trifluoropropan-2-yl)-4,7-dihydro-3H-pyrrolo[2,3-d]pyrimidin-5-yl)amino)nicotinamide] | 24.4 nM | 0.123 | 10.9 µL/min/mg | 127 min | 24.3 µL/min/mg | 57 min | 35.3 µL/min/mg | 39.3 min | 29.9 µM (≈ 14.4 µg/mL) | 0.521 nM | 46.7 | 495 nM | – | – | – | –
[2H]C([2H])([2H])NC(=O)c1cnc(NC(=O)C2CC2)cc1Nc1ccc2cnn(CC(F)F)c2c1OC [Example 131, 6-(Cyclopropanecarboxamido)-4-((1-(2,2-difluoroethyl)-7-methoxy-1H-indazol-6-yl)amino)-N-(methyl-d3)nicotinamide] | 13.3 nM | 0.046 | 65.8 µL/min/mg | 21.1 min | 95 µL/min/mg | 14.6 min | 109 µL/min/mg | 12.8 min | 32.1 µM (≈ 14.4 µg/mL) | 0.33 nM | 40.2 | – | 65.4 nM | – | – | –
[2H]C([2H])([2H])NC(=O)c1cnc(NC(=O)C2CC2)cc1Nc1ccc2ncn(CC)c2c1OC [Example 167, 6-(Cyclopropanecarboxamido)-4-((1-ethyl-7-methoxy-1H-benzo[d]imidazol-6-yl)amino)-N-(methyl-d3)nicotinamide] | – | – | 45 µL/min/mg | 30.8 min | 57.8 µL/min/mg | 24 min | 149 µL/min/mg | 9.29 min | 109 µM (≈ 44.9 µg/mL) | – | – | – | 100 nM | – | – | –
[2H]C([2H])([2H])NC(=O)c1cnc(Nc2ccc(F)cn2)cc1Nc1cn(CCOC)c2ccn(CC)c(=O)c12 [Example 192, 4-((5-Ethyl-1-(2-methoxyethyl)-4-oxo-4,5-dihydro-1H-pyrrolo[3,2-c]pyridin-3-yl)amino)-6-((5-fluoropyridin-2-yl)amino)-N-(methyl-d3)nicotinamide] | – | – | 21.9 µL/min/mg | 63.4 min | 26.8 µL/min/mg | 51.6 min | 72.6 µL/min/mg | 19.1 min | 17.8 µM (≈ 8.59 µg/mL) | 3.37 nM | – | – | 124 nM | – | – | –
[2H]C([2H])([2H])NC(=O)c1cnc(NC(=O)C2CC2)cc1Nc1ccc2cnn(C)c2c1OC [Example 206, 6-(Cyclopropanecarboxamido)-4-((7-methoxy-1-methyl-1H-indazol-6-yl)amino)-N-(methyl-d3)nicotinamide] | 11 nM | 0.07 | – | – | – | – | – | – | 28.7 µM (≈ 11.4 µg/mL) | 0.623 nM | 17.6 | – | 68.5 nM | – | – | –
[2H]C([2H])([2H])NC(=O)c1cnc(NC(=O)C2CC2)cc1Nc1ccc2cn[nH]c2c1OC [Example 207, 6-(Cyclopropanecarboxamido)-4-((7-methoxy-1H-indazol-6-yl)amino)-N-(methyl-d3)nicotinamide] | – | 0.039 | – | – | – | – | – | – | 8.45 µM (≈ 3.24 µg/mL) | 0.407 nM | – | – | 149 nM | – | – | –
[2H]C([2H])([2H])NC(=O)c1cnc(Nc2ccn(C)n2)cc1Nc1nn(C)c2ccn(CC)c(=O)c12 [Example 219] | – | – | – | – | – | – | – | – | 33.9 µM (≈ 14.4 µg/mL) | 2.86 nM | – | – | 1260 nM | – | – | –
[2H]C([2H])([2H])NC(=O)c1cnc(NC(=O)C2CC2)cc1Nc1ccc2cnn(C(C)C#N)c2c1OC (centres unmarked) [Example 249, 4-((1-(1-Cyanoethyl)-7-methoxy-1H-indazol-6-yl)amino)-6-(cyclopropanecarboxamido)-N-(methyl-d3)nicotinamide] | 25.4 nM | – | – | – | – | – | – | – | 47.4 µM (≈ 20.7 µg/mL) | 0.782 nM | 32.5 | – | 357 nM | – | – | –
CCn1ncc2cnc(Nc3cc(NC(=O)C4CC4)ncc3C(=O)NC)c(OC)c21 [Example 261, 6-(Cyclopropanecarboxamido)-4-((1-ethyl-7-methoxy-1H-pyrazolo[4,3-c]pyridin-6-yl)amino)-N-methylnicotinamide] | 45.4 nM | 0.085 | – | – | – | – | – | – | 58 µM (≈ 23.8 µg/mL) | 0.956 nM | 47.4 | – | 113 nM | > 5000 nM | > 5000 nM | > 5000 nM
